# Where “and” joins values, the source holds several entries; their conditions need not be identical. Equal values may be shown once.
# Test system: 349418-098-R-PDC spheroids, viability, % test/control
# Assay: Anticancer human tumor 349418-098-R-PDC patient-derived lung adenocarcinoma cell line growth inhibition [IpAb]
# Details: spheroids with HUVEC and MSC; for viability, T/C: stronger effect = lower value
# Summary of the method: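 Spheroids of 60% malignant cells, 25% HUVEC and 15% MSC were exposed to targeted agents combined with ipatasertib or abemaciclib. Doses started at or near clinical Cmax (10 microM when unknown) and fell in half-log steps.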
# [1] = curve of first compound, second compound 0.1 µM
# [2] = curve of first compound, second compound 0.316 µM
# [3] = curve of first compound, second compound 1 µM
# [4] = curve of first compound, second compound 3.16 µM
# [5] = curve of first compound, second compound 10 µM
# [6] = second compound 0.1 µM, first compound 0.000949 µM
# [7] = second compound 0.1 µM, first compound 0.003 µM
# [8] = second compound 0.1 µM, first compound 0.00949 µM
# [9] = second compound 0.1 µM, first compound 0.03 µM
# [10] = second compound 0.1 µM, first compound 0.0949 µM
# [11] = second compound 0.1 µM, first compound 0.3 µM
# [12] = second compound 0.316 µM, first compound 0.000949 µM
# [13] = second compound 0.316 µM, first compound 0.003 µM
# [14] = second compound 0.316 µM, first compound 0.00949 µM
# [15] = second compound 0.316 µM, first compound 0.03 µM
# [16] = second compound 0.316 µM, first compound 0.0949 µM
# [17] = second compound 0.316 µM, first compound 0.3 µM
# [18] = second compound 1 µM, first compound 0.000949 µM
# [19] = second compound 1 µM, first compound 0.003 µM
# [20] = second compound 1 µM, first compound 0.00949 µM
# [21] = second compound 1 µM, first compound 0.03 µM
# [22] = second compound 1 µM, first compound 0.0949 µM
# [23] = second compound 1 µM, first compound 0.3 µM
compound,measurement,setting,value
CC(=O)c1c(C)c2cnc(Nc3ccc(N4CCNCC4)cn3)nc2n(C2CCCC2)c1=O + CC(C)NCC(C(=O)N1CCN(c2ncnc3c2C(C)CC3O)CC1)c1ccc(Cl)cc1,IC50,[1],8.74 nM
same,IC50,[2],< 0.949 nM
same,IC50,[3],< 0.949 nM
same,IC50,[4],< 0.949 nM
same,IC50,[5],< 0.949 nM
same,"viability, T/C",[6],76.3%
same,"viability, T/C",[7],74.8%
same,"viability, T/C",[8],44%
same,"viability, T/C",[9],29.3%
same,"viability, T/C",[10],14.4%
same,"viability, T/C",[11],12.1%
same,"viability, T/C",[12],40.5%
same,"viability, T/C",[13],43.2%
same,"viability, T/C",[14],23.8%
same,"viability, T/C",[15],15.5%
same,"viability, T/C",[16],8.84%
same,"viability, T/C",[17],8.96%
same,"viability, T/C",[18],19.5%
same,"viability, T/C",[19],13.5%
same,"viability, T/C",[20],9.63%
same,"viability, T/C",[21],7.98%
same,"viability, T/C",[22],7.69%
same,"viability, T/C",[23],7.53%
same,"viability, T/C","second compound 3.16 µM, first compound 0.000949 µM",11.4%
same,"viability, T/C","second compound 3.16 µM, first compound 0.003 µM",9.48%
same,"viability, T/C","second compound 3.16 µM, first compound 0.00949 µM",8.85%
same,"viability, T/C","second compound 3.16 µM, first compound 0.03 µM",6.09%
same,"viability, T/C","second compound 3.16 µM, first compound 0.0949 µM",6.21%
same,"viability, T/C","second compound 3.16 µM, first compound 0.3 µM",7.07%
same,"viability, T/C","second compound 10 µM, first compound 0.000949 µM",7.89%
same,"viability, T/C","second compound 10 µM, first compound 0.003 µM",6.96%
same,"viability, T/C","second compound 10 µM, first compound 0.00949 µM",5.33%
same,"viability, T/C","second compound 10 µM, first compound 0.03 µM",5.56%
same,"viability, T/C","second compound 10 µM, first compound 0.0949 µM",5.75%
same,"viability, T/C","second compound 10 µM, first compound 0.3 µM",5.61%
Cn1nccc1Nc1nccc(-c2ccn(C(CO)c3ccc(Cl)c(F)c3)c(=O)c2)n1 (configuration not stated) + CC(C)NCC(C(=O)N1CCN(c2ncnc3c2C(C)CC3O)CC1)c1ccc(Cl)cc1,IC50,[1],< 31.6 nM
same,IC50,[2],< 31.6 nM
same,IC50,[3],< 31.6 nM
same,IC50,[4],< 31.6 nM
same,IC50,[5],< 31.6 nM
same,"viability, T/C","second compound 0.1 µM, first compound 0.0316 µM",43.3%
same,"viability, T/C","second compound 0.1 µM, first compound 0.1 µM",35.9%
same,"viability, T/C","second compound 0.1 µM, first compound 0.316 µM",33%
same,"viability, T/C","second compound 0.1 µM, first compound 1 µM",29.7%
same,"viability, T/C","second compound 0.1 µM, first compound 3.16 µM",21.5%
same,"viability, T/C","second compound 0.1 µM, first compound 10 µM",17.9%
same,"viability, T/C","second compound 0.316 µM, first compound 0.0316 µM",23.7%
same,"viability, T/C","second compound 0.316 µM, first compound 0.1 µM",20.2%
same,"viability, T/C","second compound 0.316 µM, first compound 0.316 µM",17.9%
same,"viability, T/C","second compound 0.316 µM, first compound 1 µM",16%
same,"viability, T/C","second compound 0.316 µM, first compound 3.16 µM",16%
same,"viability, T/C","second compound 0.316 µM, first compound 10 µM",14.6%
same,"viability, T/C","second compound 1 µM, first compound 0.0316 µM",10.3%
same,"viability, T/C","second compound 1 µM, first compound 0.1 µM",10.8%
same,"viability, T/C","second compound 1 µM, first compound 0.316 µM",8.91%
same,"viability, T/C","second compound 1 µM, first compound 1 µM",10.4%
same,"viability, T/C","second compound 1 µM, first compound 3.16 µM",11.8%
same,"viability, T/C","second compound 1 µM, first compound 10 µM",11%
same,"viability, T/C","second compound 3.16 µM, first compound 0.0316 µM",7.69%
same,"viability, T/C","second compound 3.16 µM, first compound 0.1 µM",7.5%
same,"viability, T/C","second compound 3.16 µM, first compound 0.316 µM",6.61%
same,"viability, T/C","second compound 3.16 µM, first compound 1 µM",7%
same,"viability, T/C","second compound 3.16 µM, first compound 3.16 µM",7.85%
same,"viability, T/C","second compound 3.16 µM, first compound 10 µM",8.65%
same,"viability, T/C","second compound 10 µM, first compound 0.0316 µM",5.18%
same,"viability, T/C","second compound 10 µM, first compound 0.1 µM",5.1%
same,"viability, T/C","second compound 10 µM, first compound 0.316 µM",4.68%
same,"viability, T/C","second compound 10 µM, first compound 1 µM",4.43%
same,"viability, T/C","second compound 10 µM, first compound 3.16 µM",5.74%
same,"viability, T/C","second compound 10 µM, first compound 10 µM",7%
CC1(C)CCC(CN2CCN(c3ccc(C(=O)NS(=O)(=O)c4ccc(NCC5CCOCC5)c([N+](=O)[O-])c4)c(Oc4cnc5[nH]ccc5c4)c3)CC2)=C(c2ccc(Cl)cc2)C1,"viability, T/C",compound 0.0316 µM,110% and 115%
same,"viability, T/C",compound 0.1 µM,109% and 94.8%
same,"viability, T/C",compound 0.316 µM,107% and 101%
same,"viability, T/C",compound 1 µM,103% and 106%
same,"viability, T/C",compound 3.16 µM,82.2% and 92.3%
same,"viability, T/C",compound 10 µM,6.95% and 3.46%
same,IC50,curve of compound,5170 nM and 5470 nM
CC(=O)c1c(C)c2cnc(Nc3ccc(N4CCNCC4)cn3)nc2n(C2CCCC2)c1=O + CCN1CCN(Cc2ccc(Nc3ncc(F)c(-c4cc(F)c5nc(C)n(C(C)C)c5c4)n3)nc2)CC1,IC50,"curve of first compound, second compound 0.01 µM",6.56 nM
same,IC50,"curve of first compound, second compound 0.0316 µM",< 0.949 nM
same,IC50,[1],< 0.949 nM
same,IC50,[2],< 0.949 nM
same,IC50,[3],< 0.949 nM
same,"viability, T/C","second compound 0.01 µM, first compound 0.000949 µM",58.4%
same,"viability, T/C","second compound 0.01 µM, first compound 0.003 µM",64.5%
same,"viability, T/C","second compound 0.01 µM, first compound 0.00949 µM",40.4%
same,"viability, T/C","second compound 0.01 µM, first compound 0.03 µM",35.1%
same,"viability, T/C","second compound 0.01 µM, first compound 0.0949 µM",19.1%
same,"viability, T/C","second compound 0.01 µM, first compound 0.3 µM",15.8%
same,"viability, T/C","second compound 0.0316 µM, first compound 0.000949 µM",40.7%
same,"viability, T/C","second compound 0.0316 µM, first compound 0.003 µM",38.7%
same,"viability, T/C","second compound 0.0316 µM, first compound 0.00949 µM",28.5%
same,"viability, T/C","second compound 0.0316 µM, first compound 0.03 µM",23.6%
same,"viability, T/C","second compound 0.0316 µM, first compound 0.0949 µM",15.1%
same,"viability, T/C","second compound 0.0316 µM, first compound 0.3 µM",15.6%
same,"viability, T/C",[6],24.8%
same,"viability, T/C",[7],24.8%
same,"viability, T/C",[8],20.7%
same,"viability, T/C",[9],19.5%
same,"viability, T/C",[10],16.1%
same,"viability, T/C",[11],14.6%
same,"viability, T/C",[12],16.8%
same,"viability, T/C",[13],19.6%
same,"viability, T/C",[14],19%
same,"viability, T/C",[15],16%
same,"viability, T/C",[16],13.8%
same,"viability, T/C",[17],14.4%
same,"viability, T/C",[18],13.4%
same,"viability, T/C",[19],17.6%
same,"viability, T/C",[20],15.1%
same,"viability, T/C",[21],15%
same,"viability, T/C",[22],14.9%
same,"viability, T/C",[23],13.9%

# Source: PubChem BioAssay AID2060340 (Molecular Pharmacology Branch, DTP, NCI, 2025)
